# Experimental data as given in patent US20230338574A1, “ANTIBODY-NANOPARTICLE COMPLEXES AND METHODS FOR MAKING AND USING THE SAME” (priority 2020, published 2023).
# B1: anti-PDL1 H6B1L-EM antibody (STI3031) (antibody, human IgG1, lambda, V domains shown)
# VH: QMQLVQSGAEVKKPGSSVKVSCKASGGTFSSYAYSWVRQAPGQGLEWMGGIIPSFGTANYAQKFQGRVTITADESTSTAYMELSSLRSEDTAVYYCARGPIVATITPLDYWGQGTLVTVSS
# VL: SYVLTQPPSVSVAPGKTATIACGGENIGRKTVHWYQQKPGQAPVLVIYYDSDRPSGIPERFSGSNSGNTATLTISRVEAGDEADYYCLVWDSSSDHRIFGGGTKLTVLG
# notes: also called PDL1 antibody
# Columns and labels:
# [1] = test system: MDA-MB-231 tumor xenograft; assay: In vivo efficacy in MDA-MB-231 tumor xenograft; design: species or system female athymic nude mice; conditions: Kaplan Meier
# Procedure: Female athymic nude mice, 6 weeks of age, were purchased from Envigo Corporation.
# Human breast cancer cell lines MDA-MB-231 were purchased from ATCC and were cultured and expanded in DMEM medium supplemented with 10% FBS, 100 units/ml of penicillin and 100 μg/ml of streptomycin at 37° C. in a 5% CO2 humidified environment for a period of 2-3 weeks before harvesting for implantation. Cell viability determined by Trypan blue dye exclusion assay was >90% before implantation. 4 million MDA-MB-231 cells in 100 μl of PBS were inoculated to the right upper flank of each mouse by s.c. injection.
# Tumor volume measurement was started at day 25 after tumor cell inoculation and performed twice weekly. The longest longitudinal diameter as length and the widest transverse diameter as width were measured by using a digital caliper. Tumor volume (TV) was then calculated by the formula: TV=[length×(width)^2]/2 and were analyzed in Excel.
# The treatment was started when average tumor size reached ˜400 mm^3.
# Mice were euthanized when tumor size reached 2000 mm^3.
# After tumor-bearing mice were randomized, 0.9% saline, anti-PDL1, Irinotecan 15, albumin bound non-toxic paclitaxel (NTP), free SN-38 at 7.5 and 15 mg/kg (SN38 7.5 and 15), albumin bound SN-38 at 7.5 and 15 mg/kg (Nab 7.5 and 15), anti-PDL1 plus SN38 Nab delivered at the same time in separate injections (PDL1+Nab15), or anti-PDL1 coated albumin bound SN-38 at 7.5 and 15 mg/kg (NIC 7.5 and NIC 15) were administered. Albumin bound SN-38 (Nab) and anti-PDL1 coated SN-38 Nab (NIC) were made as described above. Drugs were diluted in 0.9% saline and administered to the athymic nude mice in 100 μl by IV injections in the tail vein. SN-38 in all forms was given at 7.5 and 15 mg/kg in a single dose.
# Raw data of tumor measurements (FIG. 7A-FIG. 7K) were analyzed in Excel. Tumor growth curves, day 7 tumor response and Kaplan-Meier survival curves were plotted using GraphPad Prism 8.0 software. Data from day 7 tumor response were compared using student's t-test. P values of less than 0.05 were considered significant (FIG. 8).
# In MDA-MB-231 tumor xenograft model tumor responses were determined at day 7 using the equation: {([…])/tumor size day 0}*100. Differences in tumor response were determined by student's t-test in GraphPad Prism software 8.0. Percent change above the zero line indicates tumor growth, and below the zero line indicates tumor shrinking. […]
# Kaplan Meier curves for the MDA-MB-231 xenotransplant model were generated in GraphPad Prism software 8.0 and median survival was determined to be 28, 34, 30, 24.5, 30, and 42.5 for the saline, anti-PDL1, Irinotecan 15, NTP, free SN38 7.5, and free SN38 15, respectively. […]
# [2] = molecular target: nab-paclitaxel (Taxol) nanoparticles with SN38 (human) (UniProt P02768); assay: zeta potential (Zetasizer), nanoparticles with 2, 4, 6 or 8 mg/ml antibody
# [3] = molecular target: T1, SN38:NTP Nab (albumin nanoparticles made with non-toxic paclitaxel derivative and SN38) (human, UniProt P02768 25-609); assay: zeta potential (Zetasizer), SN38:NTP:STI3031 NIC against SN38:NTP Nab
# T1 construct: also called SN38 Nab
molecule,measurement,setting,value
CCc1c2c(nc3ccc(O)cc13)-c1cc3c(c(=O)n1C2)COC(=O)[C@]3(O)CC [SN38],median survival,"[1]; 7.5 mg/kg, single IV dose",30
same,median survival,"[1]; 15 mg/kg, IV",42.5
"anti-PDL1: anti-PDL1 H6B1L-EM antibody (STI3031), HC/LC SEQ ID NO. 1/SEQ ID NO. 2",median survival,"[1]; IV injection, dose not given",34
"CCc1c2c(nc3ccc(OC(=O)N4CCC(N5CCCCC5)CC4)cc13)-c1cc3c(c(=O)n1C2)COC(=O)[C@]3(O)CC [Irinotecan, irinotecan]",median survival,"[1]; 15 mg/kg, IV",30
B1,antibody concentration at which zeta potential reaches its maximum,[2],4 mg/mL
same,binding result,[3],binds
